Results as given in US20250101003A1, “SPIROCYCLIC CAV2.3 ANTAGONISTS” (LARIO THERAPEUTICS LIMITED, priority 2021, published 2025).

Legend:
Cav2.3 [1] = target: T1, Cav2.3 (Homo sapiens, UniProt Q15878); assay: Human Cav2.3 channel calcium-influx assay; format: cell-based; conditions: HEK-293 T-Rex/Kir2.1/Cav2.3e-β4-α2δ1 cells, Fluo8 fluorescence, without pluronic acid; read-out: Cav2.3 (pIC50) (converted)
Outline: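 Doxycycline-induced HEK-293 T-Rex/Kir2.1 clone stably expressing Cav2.3e with β4-α2δ1, loaded with Fluo8 NW; compounds (8 points from 30 μM, half-log, 0.3% DMSO) preincubated 3 min at RT. Depolarized with 20 mM KCl/2 mM CaCl2; peak-minus-baseline fluorescence over 130 s normalized to neutral and inhibitor controls as % activity.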
Target sequence in this assay (Q15878 1-747 limits assumed): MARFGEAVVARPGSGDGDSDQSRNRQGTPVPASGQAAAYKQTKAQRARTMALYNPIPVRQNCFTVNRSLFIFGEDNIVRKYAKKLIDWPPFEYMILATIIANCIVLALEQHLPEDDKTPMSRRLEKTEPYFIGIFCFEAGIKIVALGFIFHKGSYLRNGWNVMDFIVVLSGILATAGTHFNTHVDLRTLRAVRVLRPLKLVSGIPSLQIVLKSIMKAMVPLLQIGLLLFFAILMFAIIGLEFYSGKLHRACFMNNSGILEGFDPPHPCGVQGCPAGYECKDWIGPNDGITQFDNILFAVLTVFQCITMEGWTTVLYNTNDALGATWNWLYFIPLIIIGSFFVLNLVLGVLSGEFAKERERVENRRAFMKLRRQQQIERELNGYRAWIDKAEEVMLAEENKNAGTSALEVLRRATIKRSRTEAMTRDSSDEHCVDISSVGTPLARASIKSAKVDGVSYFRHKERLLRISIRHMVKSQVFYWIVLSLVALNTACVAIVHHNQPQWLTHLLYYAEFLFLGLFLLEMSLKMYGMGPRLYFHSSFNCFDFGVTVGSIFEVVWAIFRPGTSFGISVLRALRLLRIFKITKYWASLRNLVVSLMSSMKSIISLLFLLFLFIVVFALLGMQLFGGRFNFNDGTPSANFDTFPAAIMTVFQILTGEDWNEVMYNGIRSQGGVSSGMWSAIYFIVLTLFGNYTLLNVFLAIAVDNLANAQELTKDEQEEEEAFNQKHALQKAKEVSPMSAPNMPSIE
Target sequence in this assay (Q15878 1126-2313 limits assumed): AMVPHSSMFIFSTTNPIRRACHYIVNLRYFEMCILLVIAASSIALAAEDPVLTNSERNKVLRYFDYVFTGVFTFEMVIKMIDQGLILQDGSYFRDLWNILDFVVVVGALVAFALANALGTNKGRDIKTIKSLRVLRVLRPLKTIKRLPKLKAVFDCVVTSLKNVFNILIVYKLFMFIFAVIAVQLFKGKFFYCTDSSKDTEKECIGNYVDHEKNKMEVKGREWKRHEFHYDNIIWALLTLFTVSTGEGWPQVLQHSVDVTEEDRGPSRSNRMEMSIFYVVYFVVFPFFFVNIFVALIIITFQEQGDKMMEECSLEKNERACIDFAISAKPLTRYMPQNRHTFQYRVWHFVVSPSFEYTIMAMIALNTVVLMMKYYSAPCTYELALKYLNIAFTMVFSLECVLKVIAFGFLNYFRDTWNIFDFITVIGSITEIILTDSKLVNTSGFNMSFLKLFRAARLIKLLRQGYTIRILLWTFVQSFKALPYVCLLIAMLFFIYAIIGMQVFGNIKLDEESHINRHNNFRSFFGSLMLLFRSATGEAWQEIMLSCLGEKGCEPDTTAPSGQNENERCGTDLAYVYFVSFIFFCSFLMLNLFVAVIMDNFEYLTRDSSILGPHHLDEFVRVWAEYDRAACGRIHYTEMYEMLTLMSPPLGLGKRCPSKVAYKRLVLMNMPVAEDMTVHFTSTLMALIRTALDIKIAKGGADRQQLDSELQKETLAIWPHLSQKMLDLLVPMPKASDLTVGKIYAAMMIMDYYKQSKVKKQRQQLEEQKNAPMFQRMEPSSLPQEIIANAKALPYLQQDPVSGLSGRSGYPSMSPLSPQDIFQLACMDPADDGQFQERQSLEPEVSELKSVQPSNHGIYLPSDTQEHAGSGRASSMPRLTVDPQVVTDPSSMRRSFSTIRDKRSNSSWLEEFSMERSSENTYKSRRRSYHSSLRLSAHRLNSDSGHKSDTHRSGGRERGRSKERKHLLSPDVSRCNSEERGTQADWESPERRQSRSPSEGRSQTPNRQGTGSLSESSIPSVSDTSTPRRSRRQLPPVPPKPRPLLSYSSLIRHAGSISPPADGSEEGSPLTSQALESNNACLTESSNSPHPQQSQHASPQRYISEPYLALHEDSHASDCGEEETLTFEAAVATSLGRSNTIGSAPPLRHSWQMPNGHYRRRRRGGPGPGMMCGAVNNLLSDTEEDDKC

Cav2.3 [2] = target: T1, Cav2.3; assay: Whole-cell patch clamp assay (QPatch 16X); format: cell-based; conditions: whole-cell voltage clamp, HEK-293 T-Rex/Kir2.1/Cav2.3e-β4-α2δ1 cells, room temperature; read-out: Cav2.3 (pIC50) (converted)
Protocol: HEK-293 T-Rex/Kir2.1/Cav2.3e-β4-α2δ1 cells were seeded 96 hours before experiment and doxycycline at 0.2 μg/mL was added 24 hours before experiment. Just before the experiments cells were washed twice with D-PBS w/o Ca2+/Mg2+ and gently detached from the flask with Detachin. Cells were then re-suspended in the suspension solution (25 mL EX-CELL ACF CHO medium; 0.25 mL of 100× Penicillin/Streptomycin) and placed on the Automated Patch-clamp platform (QPatch 16X).
Standard whole-cell voltage clamp experiments were performed at room temperature using the single hole technology and the following intracellular and extracellular solutions (ICS and ECS, respectively) were used. ICS (mM): CsF 60, CsCl 50, NaCl 10, EGTA 20, BAPTA 5, HEPES 10, NaGTP 0.3, MgATP 5 (pH 7.2; ECS (mM): NMDG-Cl 120, BaCl2 20, HEPES 10, EGTA 7 (pH 7.4). After establishment of the seal and the passage in the whole-cell configuration, the Cav2.3 dependent current was evoked by challenging the cells with the following voltage protocol: the plasma membrane was held at −80 mV then a 50 ms-long depolarizing pulse at 0 mV, followed by a 50 ms-long hyperpolarizing pulse at −100 mV were applied and finally the plasma membrane was held back to −80 mV. This voltage protocol was applied every 10 seconds. Cav2.3 dependent current was first measured in control condition (vehicle, 0.1% DMSO), in the presence of increasing concentration of the compound under investigation and finally SNX 482 was added to fully block any R-type Cav2.3 dependent current.
For data collection, the Sophion proprietary software was used while the analysis was performed off-line using Excel and GraphPad Prism. The inward current (Area Under Curve) measured during each depolarizing pulse was normalized to cell membrane capacitance (Cm) to obtain the average inward current density in each condition (control, compound under investigation and SNX 482). Then, the inhibitory effect of the compound under investigation was evaluated as % of the remaining inward current, normalized to the internal control. […] All data were expressed as mean±S.E
Target sequence in this assay (Q15878 1-747 limits assumed): as the sequence (Q15878 1-747 limits assumed) above
Target sequence in this assay (Q15878 1126-1966 limits assumed): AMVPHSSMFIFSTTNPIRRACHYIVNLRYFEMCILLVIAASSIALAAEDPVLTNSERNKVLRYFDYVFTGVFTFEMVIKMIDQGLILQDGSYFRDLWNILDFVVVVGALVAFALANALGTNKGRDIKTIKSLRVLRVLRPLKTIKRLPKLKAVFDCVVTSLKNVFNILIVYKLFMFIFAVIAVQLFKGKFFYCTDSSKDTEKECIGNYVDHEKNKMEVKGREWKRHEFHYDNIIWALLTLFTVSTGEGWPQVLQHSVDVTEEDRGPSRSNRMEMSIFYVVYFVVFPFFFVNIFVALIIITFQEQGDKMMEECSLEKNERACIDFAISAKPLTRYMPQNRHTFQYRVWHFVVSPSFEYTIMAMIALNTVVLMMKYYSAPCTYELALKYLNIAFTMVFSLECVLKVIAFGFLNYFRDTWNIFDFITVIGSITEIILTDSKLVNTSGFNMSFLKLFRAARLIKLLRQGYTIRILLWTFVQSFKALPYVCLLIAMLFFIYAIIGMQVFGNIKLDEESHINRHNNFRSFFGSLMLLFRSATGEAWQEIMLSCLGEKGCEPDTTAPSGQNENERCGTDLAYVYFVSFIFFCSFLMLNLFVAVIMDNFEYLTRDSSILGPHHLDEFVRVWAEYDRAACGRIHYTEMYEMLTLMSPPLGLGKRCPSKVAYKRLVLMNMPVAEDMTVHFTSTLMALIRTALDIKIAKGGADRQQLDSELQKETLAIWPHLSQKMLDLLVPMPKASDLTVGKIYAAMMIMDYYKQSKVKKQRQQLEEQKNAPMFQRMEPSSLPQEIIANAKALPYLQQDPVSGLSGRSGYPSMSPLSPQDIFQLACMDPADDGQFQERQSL

CC1CC2(CCC2)CN1S(=O)(=O)c1cccs1 (single isomer, unassigned) [Example 104, 7-methyl-6-(thiophen-2-ylsulfonyl)-6-azaspiro[3.4]octane]
IC50 (Cav2.3 [1]): 1410 nM
IC50 (Cav2.3 [2]): 3720 nM

CC1CC2(CCC2)CN1S(=O)(=O)c1ccc2c(c1)CN(C(=O)c1ccccc1)CC2 (single isomer, unassigned) [Example 27, (7-((7-Methyl-6-azaspiro[3.4]octan-6-yl)sulfonyl)-3,4-dihydroisoquinolin-2(1H)-yl)(phenyl)methanone]
IC50 (Cav2.3 [1]): 851 nM
IC50 (Cav2.3 [2]): 832 nM

CC(C)C(=O)N1CCc2ccc(S(=O)(=O)N3CC4(CCC4)CC3C)cc2C1 (single isomer, unassigned) [Example 31, 2-Methyl-1-(7-((7-methyl-6-azaspiro[3.4]octan-6-yl)sulfonyl)-3,4-dihydroisoquinolin-2(1H)-yl)propan-1-one]
IC50 (Cav2.3 [1]): 646 nM
IC50 (Cav2.3 [2]): 4070 nM

CC(C)C(=O)N1CCc2ccc(S(=O)(=O)N3CC4(CCCC4)CC3C)cc2C1 (stereo not shown) [Example 100, 2-Methyl-1-(7-((3-methyl-2-azaspiro[4.4]nonan-2-yl)sulfonyl)-3,4-dihydroisoquinolin-2(1H)-yl)propan-1-one]
IC50 (Cav2.3 [1]): 708 nM
IC50 (Cav2.3 [2]): 1170 nM

CCOC(=O)N1CCc2ccc(S(=O)(=O)N3CC4(CCC4)CC3C)cc2C1 (single isomer, unassigned) [Example 23, Ethyl 7-((7-methyl-6-azaspiro[3.4]octan-6-yl)sulfonyl)-3,4-dihydroisoquinoline-2(1H)-carboxylate]
IC50 (Cav2.3 [1]): 501 nM
IC50 (Cav2.3 [2]): 832 nM

CCC1CC2(CCC2)CN1S(=O)(=O)c1ccc2nc(C)sc2c1 (stereo not shown) [Example 1, 6-((7-Ethyl-6-azaspiro[3.4]octan-6-yl)sulfonyl)-2-methylbenzo[d]thiazole]
IC50 (Cav2.3 [1]): 1410 nM
IC50 (Cav2.3 [2]): 2820 nM

CC1CC2(CCC2)CN1S(=O)(=O)c1ccc2c(c1)CN(C(=O)c1ccccc1)CC2 (stereo not shown) [Example 26, (7-((7-Methyl-6-azaspiro[3.4]octan-6-yl)sulfonyl)-3,4-dihydroisoquinolin-2(1H)-yl)(phenyl)methanone]
IC50 (Cav2.3 [1]): 1100 nM
IC50 (Cav2.3 [2]): 525 nM

CC(C)C(=O)N1CCc2ccc(S(=O)(=O)N3CC4(CCC4)CC3C)cc2C1 (single isomer, unassigned) [Example 32, 2-methyl-1-(7-((7-methyl-6-azaspiro[3.4]octan-6-yl)sulfonyl)-3,4-dihydroisoquinolin-2(1H)-yl)propan-1-one]
IC50 (Cav2.3 [1]): 1580 nM
IC50 (Cav2.3 [2]): 2340 nM

CCOC(=O)N1CCc2ccc(S(=O)(=O)N3CC4(CCC4)CC3C)cc2C1 (stereo not shown) [Example 22, Ethyl 7-((7-methyl-6-azaspiro[3.4]octan-6-yl)sulfonyl)-3,4-dihydroisoquinoline-2(1H)-carboxylate]
IC50 (Cav2.3 [1]): 741 nM
IC50 (Cav2.3 [2]): 759 nM

CC(C)C(=O)N1CCc2ccc(S(=O)(=O)N3CC4(CCC4)CC3C)cc2C1 (stereo not shown) [Example 30, 2-Methyl-1-(7-((7-methyl-6-azaspiro[3.4]octan-6-yl)sulfonyl)-3,4-dihydroisoquinolin-2(1H)-yl)propan-1-one]
IC50 (Cav2.3 [1]): 912 nM
IC50 (Cav2.3 [2]): 1700 nM

CC1CC2(CCC2)CN1S(=O)(=O)c1ccc2c(c1)CN(C(=O)c1ccccc1)CC2 (single isomer, unassigned) [Example 28, (7-((7-methyl-6-azaspiro[3.4]octan-6-yl)sulfonyl)-3,4-dihydroisoquinolin-2(1H)-yl)(phenyl)methanone]
IC50 (Cav2.3 [1]): 1510 nM
IC50 (Cav2.3 [2]): 1700 nM

CC1CC2(CCC2)CN1S(=O)(=O)c1ccc2c(c1)CN(C(=O)Cc1ccccc1)CC2 (stereo not shown) [Example 21, 1-(7-((7-Methyl-6-azaspiro[3.4]octan-6-yl)sulfonyl)-3,4-dihydroisoquinolin-2(1H)-yl)-2-phenylethan-1-one]
IC50 (Cav2.3 [1]): 955 nM
IC50 (Cav2.3 [2]): 933 nM

CCC1CC2(CCC2)CN1S(=O)(=O)c1ccc2c(c1)CN(C(=O)C(F)(F)F)CC2 (stereo not shown) [Example 33, 1-(7-((7-Ethyl-6-azaspiro[3.4]octan-6-yl)sulfonyl)-3,4-dihydroisoquinolin-2(1H)-yl)-2,2,2-trifluoroethan-1-one]
IC50 (Cav2.3 [1]): 1860 nM
IC50 (Cav2.3 [2]): 2820 nM

CCC1CC2(CCC2)CN1S(=O)(=O)c1cccs1 (single isomer, unassigned) [Example 71, 7-ethyl-6-(thiophen-2-ylsulfonyl)-6-azaspiro[3.4]octane]
IC50 (Cav2.3 [1]): 1170 nM
IC50 (Cav2.3 [2]): 1580 nM
